Structures are written as SMILES. Some results are limits rather than exact numbers.

The target in the assay is T1, 12-lipoxygenase (Sus scrofa, UniProt P16469).
T1 construct: porcine Leukocyte cytosol in buffer; from tissue; host or cells: porcine leukocyte cytosol
T1 sequence (P16469 1-663): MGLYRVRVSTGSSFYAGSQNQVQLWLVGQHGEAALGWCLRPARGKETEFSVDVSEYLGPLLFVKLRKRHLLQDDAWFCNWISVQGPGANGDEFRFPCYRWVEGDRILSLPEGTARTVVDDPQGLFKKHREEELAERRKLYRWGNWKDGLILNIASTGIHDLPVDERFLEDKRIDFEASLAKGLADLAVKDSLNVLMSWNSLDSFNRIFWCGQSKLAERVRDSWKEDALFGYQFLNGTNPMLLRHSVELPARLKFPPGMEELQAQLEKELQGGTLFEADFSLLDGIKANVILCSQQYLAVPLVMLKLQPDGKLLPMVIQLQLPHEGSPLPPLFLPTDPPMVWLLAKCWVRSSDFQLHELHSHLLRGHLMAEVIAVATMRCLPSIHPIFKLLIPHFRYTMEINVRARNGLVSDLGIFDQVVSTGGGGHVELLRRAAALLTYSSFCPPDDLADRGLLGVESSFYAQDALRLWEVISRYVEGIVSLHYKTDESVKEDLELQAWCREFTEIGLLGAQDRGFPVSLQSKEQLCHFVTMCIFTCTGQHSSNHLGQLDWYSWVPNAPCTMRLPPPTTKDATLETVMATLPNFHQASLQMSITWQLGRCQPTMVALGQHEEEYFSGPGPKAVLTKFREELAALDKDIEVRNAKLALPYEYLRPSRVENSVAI
The assay can be described thus: 12-lipoxygenase inhibition in porcine leukocyte cytosol ([1-14C] arachidonic acid conversion to 12-HETE, TLC). Type of assay: biochemical. As to conditions: porcine leukocyte cytosol 0.075 mg/mL, pH 8.0, 5 min preincubation, 5 μM arachidonic acid, 15 min at 37° C. How it is done: The standard assay procedure is as follows:
Compounds of the present invention were added in 3 μL of DMSO at an appropriate concentration to porcine Leukocyte cytosol in buffer (final protein concentration of 0.075 mg/mL in 0.1M HEPES, 2 mM caCl2, 1 mM MgCl2, pH=8.0) and preincubated for 5 min at 37° C. [1-^14 C] arachidonic acid was added (final concentration of 5 μM) and the reactions were incubated for 15 min at 37° C. and terminated by the addition of HCl. Total reaction volume was 100 μL. Assays also included reduced glutathione in the assay at 25 μM or following the assay at 1 mM and/or cold carrier 12-HETE and arachidonic acid added at the end of the incubation at concentrations of 5 and 100 μM, respectively. Sample was extracted with water-saturated ethyl acetate and the extracts were spotted onto TLC plates. The plates were developed with dichloromethane/ethyl acetate/acetic acid in a ratio of 70:30:1. Under these conditions, the Rf's of 12-HETE and arachidonic acid are 0.30 and 0.45 , respectively. The percentage conversion to 12-HETE was calculated from the percentage of the total ^14 C on the TLC plate that coelutes with a standard of 12-HETE.
`CCCCCCCC[C@H]1C[C@H](c2cccc3ccccc23)CC(=O)N1O` (relative stereo) [1(o), trans-1-hydroxy-4-(1-naphthyl)-6-octylpiperidin-2-one] yielded an IC50 of 130 nM.

Take `CCCCCCCCCCCC[C@@H]1C[C@H](c2ccccc2)CC(=O)N1O` (relative stereo) [1(d), cis-1-hydroxy-6-dodecyl-4-phenyl-piperidine-2-one]: the IC50 is 300 nM.

`CCCCCCCCCC[C@@H]1CC[C@H](c2ccccc2)C(=O)N1O` (relative stereo) [1(v), cis-6-Decyl-1-hydroxy-3-phenyl-piperidin-2-one] gave an IC50 of 1000 nM.

`O=C1C[C@H](c2ccccc2)C[C@H](CCCCCCCc2ccccc2)N1O` (relative stereo) [1(l), cis-1-hydroxy-4-phenyl-6-(7-pheylheptyl)-iperidin-2-one] returned an IC50 of 500 nM.

Compound `CCCCCCCCCCCCCC[C@H]1[C@H](c2ccccc2)CCC(=O)N1O` (relative stereo) [1(bb), trans-1-Hydroxy-5-phenyl-6-tetradecyl-piperidin-2-one] displayed an IC50 of 2000 nM.

`O=C1CC[C@@H](c2ccccc2)[C@H](CCCc2ccccc2)N1O` (relative stereo) [1(xx), trans-1-Hydroxy-5-phenyl-6-(3-phenylpropyl)-piperidin-2-one] yielded an IC50 of 1000 nM.

Take `CCCCCCCCCCCCCC[C@@H]1C[C@H](c2ccccc2)CC(=O)N1O` (relative stereo) [1(f), cis-1-hydroxy-4-phenyl-6-tetradecyl-piperidin-2-one]: the IC50 was found to be 300 nM.

For the compound `CCCCCCCCCCCCCC[C@H]1C[C@H](c2ccccc2)CC(=O)N1O` (relative stereo) [1(g), trans-1-hydroxy-4-phenyl-6-tetradecyl-piperidine-2-one], half-maximal inhibition (IC50) was put at 400 nM.

In turn, `CCCCCCCCCC[C@@H]1[C@@H](c2ccccc2)CCC(=O)N1O` (relative stereo) [1(y), trans-6-Decyl-hydroxy-5-phenyl-piperidin-2-one] returned an IC50 of 300 nM. The IC50 values of the last two compounds are within 1.5-fold of each other.

`CCCCCCCCC[C@@H]1CC(=O)N(O)C[C@H]1c1ccccc1` (relative stereo) [1(tt), trans-1-Hydroxy-4-nonyl-5-phenyl-piperidin-2-one] showed an IC50 of 600 nM.

As to `O=C1C[C@@H](CCCc2ccccc2)C[C@H](c2ccccc2)N1O` (relative stereo) [1(eee), trans-1-Hydroxy-6-phenyl-4-(3-phenylpropyl)-piperidin-2-one], the IC50 was 3000 nM.

On to `O=C1CC(CCCc2ccccc2)C(c2ccccc2)CN1O` (single isomer, unassigned) [1(uu), 1-Hydroxy-5-phenyl-4-(3-phenylpropyl)-piperidin-2-one], for which 1700 nM corresponded to half-maximal inhibition (IC50).

Consider `CCCCCCCC[C@@H]1C[C@H](c2ccc3ccccc3c2)CC(=O)N1O` (relative stereo) [1(p), cis-1-hydroxy-4-(2-naphthyl)-6-octylpiperidin-2-one], for which the IC50 came to 90 nM.

Consider `CCCCCCCCCCCC[C@@H]1C(=O)N(O)CC[C@@H]1c1ccccc1` (relative stereo) [1(r), cis-1-hydroxy-4-phenyl-3-dodecylpiperidin-2-one], for which the IC50 is 800 nM.

As for `O=C1C[C@@H](c2ccccc2)C[C@H](CCCc2ccccc2)N1O` (relative stereo) [1(k), trans-1-hydroxy-4-phenyl-6-(3-phenylpropyl)-piperidin-2-one], 390 nM corresponded to half-maximal inhibition (IC50). This IC50 lies about 2.1-fold lower than the previous one.

In turn, `CCCCCCCCCCCCCCCCCC[C@@H]1C[C@H](c2ccccc2)CC(=O)N1O` (relative stereo) [1(h), cis-1-hydroxy-6-octadecyl-4-phenylpiperidin-2-one] had an IC50 greater than 10000 nM.

On to `CCCCCCCCCCCC[C@H]1[C@H](c2ccccc2)CCC(=O)N1O` (relative stereo) [1(z), trans-6-Dodecyl-1-hydroxy-5-phenyl-piperidin-2-one], for which half-maximal inhibition (IC50) required 800 nM.

Compound `CCCCCCCCCCCCCC[C@H]1C[C@H](Cc2ccccc2)CC(=O)N1O` (relative stereo) [1(oo), trans-4-Benzyl-1-hydroxy-6-tetradecyl-piperidin-2-one] registered an IC50 of 700 nM.

In the case of `CCCCCCCCCCCC[C@@H]1C(=O)N(O)CC[C@H]1c1ccccc1` (relative stereo) [1(s), trans-1-hydroxy-4-phenyl-3-dodecylpiperidin-2-one], half-maximal inhibition (IC50) required 700 nM.

Turning to `CCCCCCCCCC[C@@H]1[C@H](c2ccccc2)CCC(=O)N1O` (relative stereo) [1(x), cis-6-Decyl-1-hydroxy-5-phenyl-piperidin-2-one], inhibition was half-maximal at 200 nM (IC50).

The compound `CCCCCCCCCC[C@H]1C[C@H](Cc2ccccc2)CC(=O)N1O` (relative stereo) [1(kk), trans-4-Benzyl-6-decyl-1-hydroxy-piperidin-2-one] gave an IC50 of 400 nM. This IC50 lies about 2-fold higher than the previous one.

On to `O=C1C(c2ccccc2)C(CCCc2ccccc2)CCN1O` (stereo not shown) [1(vv), 1-Hydroxy-3-phenyl-4-(3-phenylpropyl)-piperidin-2-one], for which it took 1000 nM to reach half-maximal inhibition (IC50).

For the compound `O=C1CC(CCc2ccccc2)C(c2ccccc2)CN1O` (stereo not shown) [1(qq), 1-Hydroxy-5-phenyl-4-(2-phenylethyl)-piperidin-2-one], half-maximal inhibition (IC50) required 1000 nM.

Take `O=C1CC(c2ccccc2)C(CCCc2ccccc2)CN1O` (stereo not shown) [1(zz), 1-Hydroxy-4-phenyl-5-(3-phenylpropyl)-piperidin-2-one]: the IC50 came to 1600 nM.

`O=C1[C@@H](CCCc2ccccc2)[C@H](c2ccccc2)CCN1O` (relative stereo) [1(u), trans-1-hydroxy-4-phenyl-3-(3-phenylpropyl)-piperidin-2-one] registered an IC50 of 1500 nM.

With `CCCCCCCCCCCCC1CCC(c2ccccc2)N(O)C1=O` (single isomer, unassigned) [1(ii), 3-Dodecyl-1-hydroxy-6-phenyl-piperidin-2-one], the IC50 was 2000 nM.

`O=C1CC[C@@H](c2ccccc2)[C@@H](CCCc2ccccc2)N1O` (relative stereo) [1(ww), cis-1-Hydroxy-5-phenyl-6-(3-phenylpropyl)-piperidin-2-one] gave an IC50 of 900 nM.

Regarding `CCCCCCCCCC[C@@H]1C[C@H](Cc2ccccc2)CC(=O)N1O` (relative stereo) [1(jj), cis-4-Benzyl-6-decyl-1-hydroxy-piperidin-2-one], the IC50 was 250 nM.

`O=C1C(CCCc2ccccc2)C(c2ccccc2)CCN1O` (stereo not shown) [1(hh), 1-Hydroxy-4-phenyl-3-(3-phenylpropyl)-piperidin-2-one] gave an IC50 of 1050 nM.

The compound `O=C1CC(CCc2ccccc2)C(Cc2ccccc2)CN1O` (stereo not shown) [1(rr), 5-Benzyl-1-hydroxy-4-(2-phenylethyl)-piperidin-2-one] displayed an IC50 of 1600 nM. Against the preceding compound, the IC50 is about 1.5-fold higher.

Compound `O=C1C[C@@H](c2ccccc2)C[C@@H](CCCc2ccccc2)N1O` (relative stereo) [1(j), cis-1-hydroxy-4-phenyl-6-(3-phenylpropyl)-piperidin-2-one] came in with an IC50 of 280 nM.

`O=C1C[C@@H](CCCc2ccccc2)C[C@@H](c2ccccc2)N1O` (relative stereo) [1(ddd), cis-1-Hydroxy-6-phenyl-4-(3-phenylpropyl)-piperidin-2-one]: half-maximal inhibition (IC50) was put at 4200 nM.

For `O=C1C(c2ccccc2)CC(CCCc2ccccc2)CN1O` (stereo not shown) [1(yy), 1-Hydroxy-3-phenyl-5-(3-phenylpropyl)-piperidin-2-one], 520 nM corresponded to half-maximal inhibition (IC50).

Consider `CCCCCCCCCC[C@H]1C[C@H](c2ccccc2)CC(=O)N1O` (relative stereo) [1(c), trans-1-hydroxy-6-decyl-4-phenyl-piperidin-2-one], for which the IC50 was 700 nM.
